Patent US20180282310A1, “FORMS AND COMPOSITIONS OF BIARYL INHIBITORS OF BRUTON'S TYROSINE KINASE” (BIOGEN MA INC., priority 2015, published 2018)
Converted amounts (≈) assume the structure as drawn. One block for each molecule: values may come before it.

Key:
Type in all cases: physicochemical
[1] = Estimated solubility in solvents at room temperature (stepwise solvent addition); conditions: for solubility: thermodynamic from solid
Protocol: Approximately 2 mg solids were added into a 3-mL glass vial. Solvents in Table 39 were then added step wise (100 μL per step) into the vials until the solids were dissolved or a total volume of 2 mL was reached. Results summarized in Table 39 were used to guide the solvent selection in polymorph screening. […] Approximately 2 mg solids were added into a 3-mL glass vial. Solvents in Table 4-6 were then added stepwise (100 μL per step) into the vials until the solids were dissolved or a total volume of 2 mL was reached. Results are summarized in Table 57, which were used to guide the solvent selection in polymorph screening.

[2] = Physical form stability on storage or drying (XRPD/TGA)
Excerpt: A sample of Compound 2 Type B reference was generated via evaporation of a solution in MeOH/MIBK (v/v, 4:1) at room temperature. […] As the sample was still wet after form transformation, Compound 2 Type B is suspected to be a metastable form at ambient conditions.

[3] = Dynamic vapor sorption (DVS): hygroscopicity and physical stability under humidity
Protocol: Dynamic Vapor Sorption (DVS) was measured via a SMS (Surface Measurement Systems) DVS Intrinsic.
To evaluate the hygroscopicity and physical stability of Compound 2 Type A under increased humidity, DVS isotherm data was collected at 25° C. with the starting sample pre-dried at 0% RH until a mass change rate lower than 0.002%/min.

SMILES: Cc1cc(-c2ccnc(Nc3cnn(C)c3)n2)ccc1CNC(=O)N1CC(OC(C)C)C1 [Compound 1 Type A, 3-isopropoxy-N-(2-methyl-4-(2-((1-methyl-1H-pyrazol-4-yl)amino)pyrimidin-4-yl)benzyl)azetidine-1-carboxamide]
solubility ([1]; organic solvent or mixture, 1,4-Dioxane, room temperature): 3500 to 4200 µg/mL (≈ 8.04 to 9.64 mM)
solubility ([1]; organic solvent or mixture, 2-MeTHF, room temperature): 2200 to 2400 µg/mL (≈ 5.05 to 5.51 mM)
solubility ([1]; organic solvent or mixture, ACN, room temperature): 2300 to 2600 µg/mL (≈ 5.28 to 5.97 mM)
solubility ([1]; organic solvent or mixture, Acetic acid, room temperature): > 54000 µg/mL
solubility ([1]; organic solvent or mixture, Acetone, room temperature): 4600 to 5800 µg/mL (≈ 10.6 to 13.3 mM)
solubility ([1]; organic solvent or mixture, CHCl3, room temperature): 20000 to 40000 µg/mL (≈ 45.9 to 91.8 mM)
solubility ([1]; organic solvent or mixture, DCM, room temperature): 12000 to 24000 µg/mL (≈ 27.6 to 55.1 mM)
solubility ([1]; organic solvent or mixture, DMAc, room temperature): > 54000 µg/mL
solubility ([1]; organic solvent or mixture, DMSO, room temperature): > 38000 µg/mL
solubility ([1]; organic solvent or mixture, EtOAc, room temperature): 1400 to 1500 µg/mL (≈ 3.21 to 3.44 mM)
solubility ([1]; organic solvent or mixture, EtOH, room temperature): 4400 to 5500 µg/mL (≈ 10.1 to 12.6 mM)
solubility ([1]; organic solvent or mixture, IPA, room temperature): 3000 to 3500 µg/mL (≈ 6.89 to 8.04 mM)
solubility ([1]; organic solvent or mixture, IPAc, room temperature): < 1500 µg/mL
solubility ([1]; organic solvent or mixture, MIBK, room temperature): < 1400 µg/mL
solubility ([1]; organic solvent or mixture, MTBE, room temperature): < 1300 µg/mL
solubility ([1]; organic solvent or mixture, MeOH, room temperature): 12500 to 25000 µg/mL (≈ 28.7 to 57.4 mM)
solubility ([1]; organic solvent or mixture, NMP, room temperature): > 56000 µg/mL
solubility ([1]; organic solvent or mixture, THF, room temperature): 6000 to 9000 µg/mL (≈ 13.8 to 20.7 mM)
solubility ([1]; organic solvent or mixture, Toluene, room temperature): < 900 µg/mL
solubility ([1]; organic solvent or mixture, n-Heptane, room temperature): < 1500 µg/mL
solubility ([1]; water, H2O, room temperature): < 1100 µg/mL

SMILES: Cc1cc(-c2ccnc(Nc3cnn(C)c3)n2)ccc1CNC(=O)N1CC(OC(C)C)C1 [Compound 1 Type B, 3-isopropoxy-N-(2-methyl-4-(2-((1-methyl-1H-pyrazol-4-yl)amino)pyrimidin-4-yl)benzyl)azetidine-1-carboxamide]
Physical stability on vacuum drying ([2]; vacuum dried at 80° C. for 15 hrs): physically unstable
Form change after the DVS test (XRPD) ([3]; 25° C.): no form change
Hygroscopicity (DVS) ([3]; 25° C.): slightly hygroscopic
Behaviour at low humidity (DVS) ([3]; relative humidity (RH) less than 10%, 25° C.): tends to dehydrate

SMILES: Cc1cc(-c2ccnc(Nc3cnn(C)c3)n2)ccc1CNC(=O)N1CC(OC(C)C)C1 [Compound 1 Type E, 3-isopropoxy-N-(2-methyl-4-(2-((1-methyl-1H-pyrazol-4-yl)amino)pyrimidin-4-yl)benzyl)azetidine-1-carboxamide]
Solid form after storage (XRPD) ([2]; ambient conditions for 2 days): conformed to Type B

Further lines, with some results ahead:

solubility ([1]; 20 °C, organic solvent or mixture, 1,4-dioxane, room temperature (RT, 20±3° C.)): < 1000 µg/mL
solubility ([1]; 20 °C, organic solvent or mixture, 2-MeTHF, room temperature (RT, 20±3° C.)): < 1000 µg/mL
solubility ([1]; 20 °C, organic solvent or mixture, ACN, room temperature (RT, 20±3° C.)): < 1000 µg/mL
solubility ([1]; 20 °C, organic solvent or mixture, Acetone, room temperature (RT, 20±3° C.)): < 900 µg/mL
solubility ([1]; 20 °C, organic solvent or mixture, CHCl3, room temperature (RT, 20±3° C.)): < 1100 µg/mL
solubility ([1]; 20 °C, organic solvent or mixture, DCM, room temperature (RT, 20±3° C.)): < 1100 µg/mL
solubility ([1]; 20 °C, organic solvent or mixture, DMAc, room temperature (RT, 20±3° C.)): 22000 to 44000 µg/mL
solubility ([1]; 20 °C, organic solvent or mixture, DMSO, room temperature (RT, 20±3° C.)): 14000 to 21000 µg/mL
solubility ([1]; 20 °C, organic solvent or mixture, EtOAc, room temperature (RT, 20±3° C.)): < 1000 µg/mL
solubility ([1]; 20 °C, organic solvent or mixture, EtOH, room temperature (RT, 20±3° C.)): 4400 to 5500 µg/mL
solubility ([1]; 20 °C, organic solvent or mixture, IPA, room temperature (RT, 20±3° C.)): 1700 to 1800 µg/mL
solubility ([1]; 20 °C, organic solvent or mixture, IPAc, room temperature (RT, 20±3° C.)): < 1200 µg/mL
solubility ([1]; 20 °C, organic solvent or mixture, MIBK, room temperature (RT, 20±3° C.)): < 1000 µg/mL
solubility ([1]; 20 °C, organic solvent or mixture, MTBE, room temperature (RT, 20±3° C.)): < 1000 µg/mL
solubility ([1]; 20 °C, organic solvent or mixture, MeOH, room temperature (RT, 20±3° C.)): > 34000 µg/mL
solubility ([1]; 20 °C, organic solvent or mixture, NMP, room temperature (RT, 20±3° C.)): 14700 to 22000 µg/mL
solubility ([1]; 20 °C, organic solvent or mixture, THF, room temperature (RT, 20±3° C.)): < 900 µg/mL
solubility ([1]; 20 °C, organic solvent or mixture, Toluene, room temperature (RT, 20±3° C.)): < 1100 µg/mL
solubility ([1]; 20 °C, organic solvent or mixture, n-heptane, room temperature (RT, 20±3° C.)): < 900 µg/mL
Form change after the DVS test (XRPD) ([3]; 25° C.): no form change
Hygroscopicity (DVS) ([3]; 25° C.): slightly hygroscopic
Water uptake (DVS) ([3]; 25° C./80% RH, sample pre-dried at 0% RH): 1.0%
SMILES: Cc1cc(-c2ccnc(Nc3cnn(C)c3)n2)ccc1CNC(=O)N1CC(OC(C)C)C1.Cl [Compound 2 Type A]
Behaviour in the solubility test (stability of the salt) ([1]; H2O, room temperature, colour change of solids from orange to faint yellow): N/A: disproportionation occurred along with obvious color change of solids from orange to faint yellow.

Solid form change during air drying (XRPD) ([2]; air drying at ambient conditions): converted into Compound 2 Type A
SMILES: Cc1cc(-c2ccnc(Nc3cnn(C)c3)n2)ccc1CNC(=O)N1CC(OC(C)C)C1.Cl [Compound 2 Type B]
